According to patent US20040009485A1, “Cellular arrays for the identification of altered gene expression” (priority 2002, published 2004):
Where “and” joins values, the source holds several entries; their conditions need not be identical. Identical values can stand only once. Like-named read-outs stand apart in the source and are kept apart here.

Columns and labels:
SOS regulon gene fusions = assay: Stress response of SOS regulon luxCDABE gene fusions (nalidixic acid); format: cell-based, E. coli; conditions: SOS regulon gene fusions; 5, 4, or 3% (v/v) ethanol
Procedure: (§1) To test the stress responses, one or two single colonies of each selected strain were used to inoculate 5.0 ml of LB medium containing 150 μg/ml of ampicillin. These cultures were grown overnight at 37° C. then diluted by adding 50 μl or 100 μl of the overnight culture into 10.0 ml of fresh LB medium (without ampicillin) and grown with agitation at 37° C. until the culture was in exponential phase with readings on a Klett-Summerson colorimeter containing the red filter of between 10 and 40. These actively growing cultures were immediately used to initiate a stress response experiment by adding 50 μl of cultures to 50 μl of LB medium containing various concentrations of chemical in the wells a 96 well luminometer plate. This division of the actively growing culture at the time of chemical addition ensured identical populations were present when the stress was imposed. Light production was measured in a Dynex ML3000 luminometer at 37° C. The dimensionless units of light production, relative light units (RLU), are obtained by comparison with the light reading from an internal light-emitting diode. The cycle mode of the ML3000 luminometer, similar to previous descriptions (Van Dyk et al., Appl. Environ. Microbiol. 60:1414-120) was used.
The ability of these promoter-luxCDABE fusions to report activation of the SOS stress response was tested using nalidixic acid, a known, potent chemical inducer. The final concentrations of nalidixic acid were 1, 5, 25, and 125 μg/ml for all but strain DPD2293, which was tested at 80, 40, 20, 10, 5, 2.5, and 1.25 μg/ml.
Specificity of responses was tested by measuring the effect of ethanol on these SOS regulon gene fusions.

[1] = system: clpB-luxCDABE gene fusion; conditions: 38 min; for Response Ratio: 4% ethanol; for Light production in LB + 4% ethanol: 37° C.
Procedure: Plasmid DNA was isolated from lux-a.pk043.d3, digested with restriction enzyme XmaI, and ligated with T4 DNA ligase. The ligation reaction was used to transform E. coli strain DPD1675 by electroporation. Transformants were selected by ampicillin resistance. […] Actively growing cultures at 37° C. in LB medium were treated with 4% ethanol arid light production was quantitated at 37° C. using a microplate luminometer (Dynex ML3000). Table 17 summarizes the average bioluminescence of duplicate samples at 38 min after treatment.

[2] = system: heat shock regulon gene fusions; assay: Stress response of heat shock regulon luxCDABE gene fusions (ethanol); format: cell-based, E. coli; conditions: for 3% Ethanol Response ratio: 40 minutes, LB, treated/untreated
Procedure: as §1, with “used. […]” for “used.”

[3] = system: ahpC-luxCDABE fusions in E. coli host strain DPD2228 (pcnB80); conditions: for H2O2 response ratio in pcnB- host: 0.002% hydrogen peroxide, 30 minutes, LB
Procedure: as §1

[4] = system: OxyR regulon gene fusions (ahpC-luxCDABE); conditions: for H2O2 response ratio: ahpC fusion, 0.002% hydrogen peroxide, 30 minutes, LB
Procedure: as §1
To test if these strains would report on activation of the OxyR-controlled oxidative stress response, each was treated with hydrogen peroxide at 0.016, 0.008, 0.004, 0.002, 0.001, 0.0005, 0.00025%.

[5] = system: luxCDABE gene fusions of the Lux-A Collection; assay: Induction of Lux-A Collection gene fusions by MMC (and yebF fusion by nalidixic acid); format: cell-based, E. coli
Procedure: The Lux-A Collection of reporter gene fusions was examined for presence of fusions to the genes in Table 11. […] Each of these was tested for induction by MMC at several doses over a time course of 100 minutes.
As expected, the expression of the known SOS genes was elevated; however the expression of several was elevated less than 2-fold (Table 12) and as such were within a large group of 792 genes the expression of which was elevated by 20% or more. Most of these are likely due to artifacts in the array data rather than to actual biologically relevant responses. To test if strains carrying luxCDABE gene fusions would yield the expected positive result, the three gene fusions that were available in the Lux-A Collection of reporter gene fusions were tested for mitomycin C responses.
In this case, a divergent promoter to the purT gene was present in the chromosomal fragment and strains containing the backward yebF fusion produced light. […] […] The orientation of the inserted segment to yield a fusion of yebF to the luxCDABE operon was confirmed by DNA sequence analysis.

[6] = system: luxCDABE gene fusions in lexA+ host; assay: Mitomycin C and nalidixic acid responses in lexA+ host; format: cell-based, E. coli; conditions: for MitC Ratio, 2 hr 250 ng/ml: lexA+ host
Procedure: (§2) In addition, the effect of a lexAind mutation was tested to determine if any of these were part of the SOS regulon. The expectation is that SOS regulon member will be induced by both nalidixic acid and mitomycin C in a manner that is dependent on lexA function (Walker, G. C., (1996) Escherichia coli and Salmonella: Cellular and Molecular Biology ASM Press). […] This is consistent with the observation of upregulation of the b1728 mRNA transcript upon mitomycin C treatment in a LexA dependent fashion (Fernández de Henestrosa et al. (2000). Mol. Microbiol. 35:1560-1572). Likewise, two Gene fusions, those to oraA and yigN were identified is new members of the SOS regulon (Table 16). […] Negative, non-DNA damage responsive gene fusions were also included (Table 16).

[7] = system: luxCDABE gene fusions in lexAind host; assay: Mitomycin C and nalidixic acid responses in lexAind host; format: cell-based, E. coli; conditions: for MitC Ratio, 2 hr 250 ng/ml: lexAind host
Procedure: as §2

[8] = system: SoxR/S regulon gene fusions; assay: Stress response of SoxR/S regulon luxCDABE gene fusions (methyl viologen); format: cell-based, E. coli; conditions: for Methyl viologen response ratio: 250 μg/ml, 120 minutes, LB, treated/untreated
Procedure: Like the SOS and heat shock regulon fusions, these had basal light production greater than the promoterless parental plasmid indicating the presence of a promoter. Responsiveness of four of these strains to a known inducer of the SoxR/S regulon, methyl viologen, was tested at 1000, 500, 250, 125, 62, 31 and 16 μg/ml. […] Table 8 gives the response ratio for 250 μg/ml at 120 minutes of treatment for the four tested strains. Here again, the biologically appropriate response was observed.

[9] = lux-a.pk054.c3 (DPD2243), clpB fusion
[10] = 1pxA 1pxB rnhB dnaE fusion (lux-a.pk061.c3)
[11] = dinG ybiB fusion (lux-a.pk0024.f5)
[12] = lacZ fusion (65.d4), negative control
[13] = yciG fusion (lux-a.pk006.b4), negative control

CCO [Ethanol, ethanol]
bioluminescence of SOS regulon gene fusions (specificity) (SOS regulon gene fusions): little to no increased biolumninescence
Response Ratio ([1]; Inverted lux-a.pk043.d3 (two transformants)): 6.5 and 5.5
Light production in LB + 4% ethanol ([1]; lux-a.pk043.d3 (clpB promoter not operably linked)): 0.0025 RLU
Response Ratio [1, 9]: 9.4
Light production in LB + 4% ethanol [1, 9]: 13.00 RLU
3% Ethanol Response ratio ([2]; clpB fusion, DPD2243 (lux-a.pk054.c3)): 4.7
bioluminescence compared with untreated culture ([2]; each of the six heat shock fusion strains, at least two of 5, 4, 3, 2 (v/v)% ethanol): increased bioluminescence
3% Ethanol Response ratio ([2]; grpE fusion, DPD2241 (lux-a.pk057.h1)): 5.2
3% Ethanol Response ratio ([2]; lon fusion, DPD2242 (lux-a.pk021.g11)): 5.6
3% Ethanol Response ratio ([2]; rfaDFCL fusion, DPD2244 (lux-a.pk040.e4)): 1.4
3% Ethanol Response ratio ([2]; rpoD fusion, DPD2246 (lux-a.pk089.e7)): 2.4

OO [H2O2, hydrogen peroxide]
induction of bioluminescence ([3]; both ahpC-luxCDABE strains in pcnB- host, each of seven conc 0.004-0.00006%): dramatically induced increased bioluminescence
H2O2 response ratio in pcnB- host ([3]; plasmid of DPD2283 (lux-a.pk051.d5) in DPD2228): 16.5
H2O2 response ratio in pcnB- host ([3]; plasmid of DPD2284 (lux-a.pk051.e3) in DPD2228): 15.3
H2O2 response ratio ([4]; DPD2283 (lux-a.pk051.d5)): 1.3
H2O2 response ratio ([4]; DPD2284 (lux-a.pk051.e3)): 1.6
H2O2 response ratio ([4]; DPD2285 (lux-a.pk03.d6)): 1.2
induction of bioluminescence ([4]; three ahpC-luxCDABE strains, 0.016-0.00025% hydrogen peroxide): minimally induced

CO[C@@]12[C@H](COC(N)=O)C3=C(C(=O)C(C)=C(N)C3=O)N1C[C@@H]1N[C@@H]12 [MMC, mitomycin C]
Induction of Fusion ([5]; b1847 (yebF)-luxCDABE fusion (when inverted), MMC): YES
Induction of Fusion ([5]; b1847 (yebF)-luxCDABE fusion (when inverted), MMC, listed as mitomycin C): induction by mitomycin C was demonstrated
Induction of Fusion ([5]; dinB (dinP)-luxCDABE fusion, several doses of MMC, time course of 100 minutes): YES
Induction of Fusion ([5]; dinF-luxCDABE fusion, MMC): YES
Induction of Fusion ([5]; dinG-luxCDABE fusion, MMC): YES
Induction of Fusion ([5]; recA-luxCDABE fusion, several doses of MMC, time course of 100 minutes): YES
Induction of Fusion ([5]; ruvA-luxCDABE fusion, several doses of MMC, time course of 100 minutes): YES
Induction of Fusion ([5]; uvrA-luxCDABE fusion, several doses of MMC, time course of 100 minutes): YES
Induction of Fusion ([5]; uvrD-luxCDABE fusion, MMC): YES
MitC Ratio, 2 hr 250 ng/ml [6, 10]: 1.06
MitC Ratio, 2 hr 250 ng/ml ([6]; b1728 fusion (lux-a.pk033.c5)): 8.97
MitC Ratio, 2 hr 250 ng/ml ([6]; b1936 fusion (lux-a.pk0019.g1)): 1.22
MitC Ratio, 2 hr 250 ng/ml [6, 11]: 5.01
MitC Ratio, 2 hr 250 ng/ml ([6]; fusion (lux-a.pk0015.d6)): 1.12
MitC Ratio, 2 hr 250 ng/ml [6, 12]: 0.80
induction of b1728 promoter-luxCDABE fusion ([6]; lexA+ host (FIG. 9)): clearly induced
MitC Ratio, 2 hr 250 ng/ml ([6]; oraA fusion (lux-a.pk058.f5)): 15.27
MitC Ratio, 2 hr 250 ng/ml ([6]; yaaF fusion (lux-a.pk031.e7)): 1.02
MitC Ratio, 2 hr 250 ng/ml [6, 13]: 0.56
MitC Ratio, 2 hr 250 ng/ml ([6]; yigN fusion (lux-a.pk046.f11)): 9.84
MitC Ratio, 2 hr 250 ng/ml [7, 10]: 1.29
MitC Ratio, 2 hr 250 ng/ml ([7]; b1728 fusion (lux-a.pk033.c5)): 0.90
MitC Ratio, 2 hr 250 ng/ml ([7]; b1936 fusion (lux-a.pk0019.g1)): 2.46
MitC Ratio, 2 hr 250 ng/ml [7, 11]: 1.15
MitC Ratio, 2 hr 250 ng/ml ([7]; fusion (lux-a.pk0015.d6)): 1.73
MitC Ratio, 2 hr 250 ng/ml [7, 12]: 1.24
induction of b1728 promoter-luxCDABE fusion ([7]; lexAind host strain (FIG. 9)): not induced
MitC Ratio, 2 hr 250 ng/ml ([7]; oraA fusion (lux-a.pk058.f5)): 1.21
MitC Ratio, 2 hr 250 ng/ml ([7]; yaaF fusion (lux-a.pk031.e7)): 0.99
MitC Ratio, 2 hr 250 ng/ml [7, 13]: 0.61
MitC Ratio, 2 hr 250 ng/ml ([7]; yigN fusion (lux-a.pk046.f11)): 0.93

C[n+]1ccc(-c2cc[n+](C)cc2)cc1 [Methyl viologen, methyl viologen]
bioluminescence compared with untreated culture ([8]; each of four SoxR/S fusion strains, each of 1000, 500, 250, 125, 62, 31 and 16 μg/ml): induced increased bioluminescence
Methyl viologen response ratio ([8]; inaA fusion, DPD2087 (lux-a.pk014.a9)): 9.0
Methyl viologen response ratio ([8]; poxB fusion, DPD3509 (lux-a.pk071.all)): 15.0
Methyl viologen response ratio ([8]; ribA fusion, DPD2286 (lux-a.pk078.d2)): 4.7
Methyl viologen response ratio ([8]; zwf fusion, DPD2272 (lux-a.pk082.g7)): 3.6
